Source: US6894061B2, “Substituted dihydrophenanthridinesulfonamides” (Wyeth, priority 2002, dated 2005)

What was measured:
ER/NF-κB = ER/NF-κB luciferase reporter in Ad5-wt-ERα infected HAECT-1 cells; assay type: cell-based, human; conditions: Homo sapiens, HAECT1, IL-1β; for IC50: read-out: ER/NFκB IC50; for Emax: read-out: ER/NFκB Efficacy (%)*
Protocol: (§1) After four hours, cells were washed with EBM-BSA and incubated overnight in the same medium. Following overnight incubation, cells were washed with EBM-BSA and infected for 2 hours with 6 mL of a 1:10 dilution of Ad5-3x(NFκB).Luc virus (Adenovirus luciferase expression vector driven by 3 repeats of the MHC NFκb site 5′ to the thymidine kinase promoter) in EBM-BSA. After two hours, cells were washed and incubated at 34° C. for 1 hour. […] Control (no ER infection) cells were processed as above without Ad5-wt-hERα virus infection.
(§2) ERα infected HAECT-1 cells or control cells were thawed, diluted 42× in warm EBM-BSA, plated into 96-well plates at 0.1 mL/well and incubated for 4 hours at 34° C. Test compounds were added to the cells as 2× stocks in EBM-BSA containing 2 ng/mL IL-1β (R&D Systems) and the 96-well plates were returned to the incubator (34° C.). After 15-20 hours, 100 μL aliquots of media were removed from the cells and assayed for IL-6 content using a BioSource human IL-6 ELISA Kit. Cells were subsequently washed with 300 μL of Dulbecco's phosphate buffered saline and lysed in 50 μL of Cell Culture Lysis Reagent (Promega). Luciferase was determined on a Wallac Victor^2 Luminometer (Gaithersburg, Md.) using 10 μL of lysate and mixing with 100 μL of Promega Luciferase Assay reagent. Creatine kinase was determined from the rate of increase in A340 following addition of 100 μL of CK assay reagent (Sigma, cat. No 47-10) to the remainder of the cell lysate.
(§3) For IC50 and EC50 calculations, mean IL-6, luciferase or CK values versus log10 of the compound concentration were fitted to a four parameter logistic equation. The IC50/EC50 value, ‘Hill slope’, upper and lower limits of the curve were iteratively estimated.

creatine kinase = assay: Creatine kinase (CK) test procedure in Ad5-wt-ERα infected HAECT-1 cells; assay type: cell-based, human; conditions: Homo sapiens, HAECT1, Ad5-wt-ERα infected HAECT-1 cells; for Emax at 10 µM / Emax: read-out: Creatin Kinase Efficacy (%); for EC50: read-out: Creatin Kinase EC50
Protocol: as §1, §2, §3

SMILES | IC50 (ER/NF-κB) | Emax at 10 µM (creatine kinase) | melting point | Emax (ER/NF-κB) | EC50 (creatine kinase) | Emax (creatine kinase)
CC1c2ccccc2-c2cc(Br)ccc2N1S(=O)(=O)c1ccc(O)c(F)c1 (centres unmarked) [Example 57, 4-[(2-Bromo-6-methylphenanthridin-5(6H)-yl)sulfonyl]-2-fluorophenol] | > 10000 nM | < 35% | 203 to 206 °C |  |  | 
CCC1c2cc(F)ccc2-c2ccccc2N1S(=O)(=O)c1ccc(O)cc1 (centres unmarked) [Example 40, 4-[(6-Ethyl-8-fluorophenanthridin-5(6H)-yl)sulfonyl]phenol] | 27 nM | < 35% | 151 °C | 99% |  | 
Cc1cc(S(=O)(=O)N2c3ccccc3-c3ccc(F)cc3C2C)ccc1O (centres unmarked) [Example 35, 4-[(8-Fluoro-6-methylphenanthridin-5(6H)-yl)sulfonyl]-2-methylphenol] | 707 nM | < 35% | 196 °C | 94% |  | 
Cc1cc(S(=O)(=O)N2c3ccccc3-c3ccccc3C2C)ccc1O (centres unmarked) [Example 5, 2-Methyl-4-[(6-methylphenanthridin-5(6H)-yl)sulfonyl]phenol] | 433 nM | < 35% | 186 to 188 °C | 102% |  | 
Cc1ccc2c(c1)C(C)N(S(=O)(=O)c1ccc(O)cc1)c1ccccc1-2 (centres unmarked) [Example 60, 4-[(6,8-Dimethylphenanthridin-5(6H)-yl)sulfonyl]phenol] | 257 nM | < 35% | 111 to 113 °C | 95% |  | 
CC1c2ccccc2-c2ccccc2N1S(=O)(=O)c1ccc(O)c(CO)c1 (centres unmarked) [Example 26, 2-(Hydroxymethyl)-4-[(6-methylphenanthridin-5(6H)-yl)sulfonyl]phenol] | > 10000 nM | < 35% | 182 to 184 °C |  |  | 
CCCCC1c2ccccc2-c2ccccc2N1S(=O)(=O)c1ccc(O)cc1 (centres unmarked) [Example 7, 4-[(6-Butylphenanthridin-5(6H)-yl)sulfonyl]phenol] | 470 nM | < 35% | 149 to 151 °C | 7% |  | 
CC(C)(C)C1c2ccccc2-c2cc(Br)ccc2N1S(=O)(=O)c1ccc(O)cc1 (centres unmarked) [Example 17, 4-[(2-Bromo-6-tert-butylphenanthridin-5(6H)-yl)sulfonyl]phenol] | 58 nM | < 35% | 245 to 247 °C | 76% |  | 
O=S(=O)(c1ccc(O)cc1)N1c2ccccc2-c2ccccc2C1c1ccccc1 (centres unmarked) [Example 9, 4-[(6-Phenylphenanthridin-5(6H)-yl)sulfonyl]phenol] | 125 nM |  | 217 to 220 °C | 89% | 455 nM | 26%
O=S(=O)(c1ccc(O)cc1)N1c2ccc(Br)cc2-c2ccccc2C1c1ccccc1 (centres unmarked) [Example 12, 4-[(2-Bromo-6-phenylphenanthridin-5(6H)-yl)sulfonyl]phenol] | 682 nM | < 35% | 262 to 265 °C | 93% |  | 
CCC1c2cc(F)ccc2-c2ccccc2N1S(=O)(=O)c1ccc(O)c(C)c1 (centres unmarked) [Example 41, 4-[(6-Ethyl-8-fluorophenanthridin-5(6H)-yl)sulfonyl]-2-methylphenol] | 815 nM |  | 181 °C | 75% | 429 nM | 24%
C[C@@H]1c2ccccc2-c2ccccc2N1S(=O)(=O)c1ccc(O)cc1 (single isomer, unassigned) [Example 3] | 1510 nM | < 35% | 181 to 183 °C | 97% |  | 
CC1c2cc(F)ccc2-c2ccccc2N1S(=O)(=O)c1ccc(O)c(F)c1 (centres unmarked) [Example 49, 2-Fluoro-4-[(8-fluoro-6-methylphenanthridin-5(6H)-yl)sulfonyl]phenol] | > 10000 nM | < 35% | 191 °C |  |  | 
O=S(=O)(c1ccc(O)cc1)N1c2ccccc2-c2ccccc2[C@H]1c1ccccc1 (single isomer, unassigned) [Example 10] | 61 nM | < 35% | 208 to 210 °C | 95% |  | 
CCC1c2ccccc2-c2cc(-c3cccc(O)c3)ccc2N1S(=O)(=O)c1ccc(O)cc1 (centres unmarked) [Example 30, 3-{6-Ethyl-5-[(4-hydroxyphenyl)sulfonyl]-5,6-dihydrophenanthridine-2-yl}phenol] | 53 nM | < 35% | 105 °C | 76% |  | 
CCC1c2cc(F)ccc2-c2ccccc2N1S(=O)(=O)c1ccc(OC(=O)CC(C)(C)C)cc1 (centres unmarked) [Example 53, 4-[(6-Ethyl-8-fluorophenanthridin-5(6H)-yl)sulfonyl]phenyl 3,3-dimethylbutanoate] | 764 nM | < 35% | 128 °C | 76% |  | 
CC1c2cc(F)ccc2-c2ccccc2N1S(=O)(=O)c1ccc(O)c(O)c1 (centres unmarked) [Example 50, 4-[(8-Fluoro-6-methylphenanthridin-5(6H)-yl)sulfonyl]benzene-1,2-diol] | > 10000 nM | < 35% | 165 to 170 °C |  |  | 
CC1c2ccccc2-c2ccccc2N1S(=O)(=O)c1ccc(O)c(C(F)(F)F)c1 (centres unmarked) [Example 58, 4-[(6-Methylphenanthridin-5(6H)-yl)sulfonyl]-2-(trifluoromethyl)phenol] | > 10000 nM | < 35% | 213 to 215 °C |  |  | 
CC(C)(C)C1c2ccccc2-c2ccccc2N1S(=O)(=O)c1ccc(O)cc1 (centres unmarked) [Example 14, 4-[(6-tert-Butylphenanthridin-5(6H)-yl)sulfonyl]phenol] | 108 nM |  | 192 to 194 °C | 105% | 757 nM | 50%
CCC1c2cc(F)ccc2-c2cc(-c3ccccc3)ccc2N1S(=O)(=O)c1ccc(O)cc1 (centres unmarked) [Example 47, 4-[(6-Ethyl-8-fluoro-2-phenylphenanthridin-5(6H)-yl)sulfonyl]phenol] | 60 nM | < 35% | 207 °C | 89% |  | 
CCC1c2cc(F)ccc2-c2ccccc2N1S(=O)(=O)c1ccc(O)c(Cl)c1 (centres unmarked) [Example 46, 2-Chloro-4-[(6-ethyl-8-fluorophenanthridin-5(6H)-yl)sulfonyl]phenol] | > 10000 nM | < 35% | 174 to 177 °C |  |  | 
Cc1cc(S(=O)(=O)N2c3ccccc3-c3ccccc3C2C)cc(C)c1O (centres unmarked) [Example 59, 2,6-Dimethyl-4-[(6-methylphenanthridin-5(6H)-yl)sulfonyl]phenol] | 1720 nM |  | 211 to 213 °C | 102% | 2930 nM | 22%
Cc1cc(S(=O)(=O)N2c3ccc(Br)cc3-c3ccccc3C2C)ccc1O (centres unmarked) [Example 6, 4-[(2-Bromo-6-methylphenanthridin-5(6H)-yl)sulfonyl]-2-methylphenol] | 474 nM | < 35% | 193 to 195 °C | 92% |  | 
CC1c2ccc(O)cc2-c2ccccc2N1S(=O)(=O)c1ccc(O)cc1 (centres unmarked) [Example 36, 5-[(4-Hydroxyphenyl)sulfonyl]-6-methyl-5,6-dihydrophenanthridin-9-ol] | 690 nM | < 35% | 212 °C | 60% |  | 
CC1c2ccccc2-c2cc(Br)ccc2N1S(=O)(=O)c1ccc(O)cc1 (centres unmarked) [Example 4, 4-[(2-Bromo-6-methylphenanthridin-5(6H)-yl)sulfonyl]phenol] | 54 nM |  | 201 to 203 °C | 101% | 48 nM | 23%
CC1c2ccccc2-c2ccccc2N1S(=O)(=O)c1ccc(O)cc1 (centres unmarked) [Example 1, 4-[(6-Methylphenanthridin-5(6H)-yl)sulfonyl]phenol] | 422 nM |  | 196 to 198 °C | 94% | 1000 nM | 39%
CC(C)(C)[C@H]1c2ccccc2-c2ccccc2N1S(=O)(=O)c1ccc(O)cc1 [Example 16, 4-{[(S)-6-tert-Butylphenanthridin-5(6H)-yl]sulfonyl}phenol] | 2280 nM |  | 187 to 189 °C | 89% | 3160 nM | 15%
CCC1c2cc(F)ccc2-c2cc(-c3cccnc3)ccc2N1S(=O)(=O)c1ccc(O)cc1 (centres unmarked) [Example 127, 4-[(6-Ethyl-8-fluoro-2-pyridin-3-ylphenanthridin-5(6H)-yl)sulfonyl]phenol] |  |  | 195 to 200 °C |  |  | 
